Reference: patent publication US9345764B2, “Moesin modulators and uses thereof” (SHANGHAI KEXIN BIOTECH CO., LTD., priority 2010, dated 2016)

Tests used:
[1] = tested on: human pulmonary microvascular endothelial cell line (HPMEC); experiment: Cell proliferation assay; format: cell-based; settings: agent alone; compared with negative control (Group 6, PBS); FIG. 3
Method: Cell proliferation assay were performed using a human pulmonary microvascular endothelial cell line (HPMEC). Cells were plated in each well on a 6-well plate at 10^6 cells/cm^2, and cultured at […] in the presence of various testing and control reagents as described below. After culturing for a determined period of time, cells were collected and labeled for flow cytometry analysis. Proliferation rates at 2 hrs, 24 hrs and 36 hrs were determined by dividing the mean OD570 value from the tested groups with the mean OD570 value from the group having the same number of cells as the test groups at the beginning of the cell culturing.
Tested and control groups are as follows:
2) Antibody against full length moesin protein (anti-Moesin);
3) Antibody against the C-terminal tail domain only (anti-M3);
4) TNF-alpha+anti-Moesin;
6) PBS solution (negative control)

HPMEC cells = experiment: Annexin V apoptosis assay (FITC/PI, flow cytometry); format: cell-based, human; settings: agent alone, without combination partner
Method: Cell cultures in the presence of anti-moesin antibodies as described in Example 1 were subjected to apoptosis assay as well as surface antigen assay, to assess the antibody's effect on promoting endothelial cell apoptosis and on intercellular expression of moesin (indicating the active form of the protein).
Annexin V assay was used to study apoptosis. Collected cells were washed with PBS, centrifuged, and added sequentially with 70% ethanol, […] (200 mg/l) and PI (20 mg/l). Cells were then stained with Annexin-V FITC/PI kit for double staining of FITC and PI, because viable cells are both FITC and PI negative, while cells that are in early apoptosis are FITC positive but PI negative, and cells that are in late apoptosis or already dead are both FITC and PI positive. Stained cells are analyzed using a flow cytometer for amount of apoptotic cells in the presence of variant testing agents. The percentage of cells in early apoptosis and the percentage of cells in late apoptosis or dead cells after treatment with the test groups and the control group were determined and the results are shown in FIG. 4(a) and FIG. 4(b) respectively.

## TNF-alpha
[1]
  cell proliferation rates: reduced cell proliferation rates but not as much as in combination with anti-moesin or anti-M3
HPMEC cells
  cell apoptosis: could induce cell apoptosis but the effect is not as much as it in combination with anti-moesin or anti-M3
